From patent US20220347253A1, “HEALTH FOOD AND COSMETICS FOR INCREASING THE AMOUNT OF APOPTOSIS CELLS AND DECREASING THE AMOUNT OF NECROSIS CELLS AND A METHOD OF MANUFACTURING A SPROUT-FORCING GRAPE SEED-DERIVED INGREDIENT FOR INCREASING THE AMOUNT OF APOPTOSIS CELLS AND DECREASING THE AMOUNT OF NECROSIS CELLS” (priority 2017, published 2022)

Experiments:
[1] = tested on: male and female mouse; conditions: cited from earlier work
[2] = tested on: Normal human fibroblasts; experiment: Test for confirming anti-aging effect: amount of senescent cells by SA-β-gal (SPiDER-βGal) staining; assay type: cell-based; conditions: for amount of the senescent cells relative to Control: Control = 100%, Example 1/2/3 = 0.002/0.01/0.05 wt % ingredient, Comparative Example 1 = 0.0023 wt % resveratrol
Method: Subsequent to initiation, Normal human fibroblasts (KURABO INDUSTRIES LTD., product No.: KF-4109) were cultured in a basal medium (DMEM (Nacalai Tesque, Inc., product No.: 08456-65)), 10% FBS (BioWest, product No.: S1820, Lot No. 516536), and 1% antibiotic (penicillin-streptomycin mixed solution (Nacalai Tesque, Inc., product No.: 26253-84)) in a CO2 incubator (5% CO2, 37° C.) until a required number of cells were obtained. […] After the resolution, Example and Comparative Example resolved in a basal medium were centrifuged respectively (120,000 rpm (2,000 s^-1), 10 minutes) to remove insoluble materials. After the centrifugal separation, supernatant was collected, filtered and sterilized through a sterilizing filter to be used for each test. Anti-aging effect of Example and Comparative Example was tested by measuring an activity of β-galactosidase (senescence-associated β-galactosidase; SA-β-gal) generally used as a cell aging marker. Normal human fibroblasts prepared with a basal medium was seeded on a 96-well plate so as to be 1×10^4 cells/0.1 ml/well (black plate for fluorescence observation (Sumitomo Bakelite Co., Ltd. product No.: MS-8096F)) and cultured for 24 hours. After the culture, culture supernatants were respectively replaced with the below mediums with different conditions, and normal human fibroblasts were cultured again. The conditions for each medium are as follows. Each cell cultured with mediums with each condition are referred to as Examples 1-3, Comparative Example 1, and Control respectively. Example 1: a basal medium comprising 0.002 wt % of grape seed-derived anti-aging ingredients of the present invention. Example 2: a basal medium comprising 0.01 wt % of grape seed-derived anti-aging ingredients of the present invention. Example 3: a basal medium comprising 0.05 wt % of grape seed-derived anti-aging ingredients of the present invention. Comparative Example 1: a basal medium containing 0.0023 wt % of resveratrol. Control: a basal medium (comprising no grape seed-derived anti-aging ingredients of the present invention nor resveratrol). Normal human fibroblasts were cultured respectively with the conditions for up to 21 days. The mediums were exchanged every 2 to 3 days. After the culture, culture supernatants were removed and the cells were washed twice with PBS (Nissui Pharmaceutical Co., Ltd., product No.: 05913). […] After wash, the basal medium was added to normal human fibroblasts, and nuclei staining (living cells) and stained images of the senescent cells were taken by a fluorescence microscope (Keyence Corporation, product No.: BZ-[…]). The amount of the senescent cells were calculated based on the respective fluorescent images. […]

[3] = tested on: Normal human fibroblasts; experiment: Amount of necrosis cells (EthD-III staining); assay type: cell-based; conditions: for amount of the necrosis cells compared to the Control: Control = 100%, Comparative Example 1 = 0.0023 wt % resveratrol
Excerpt: Example 1: a basal medium comprising 0.002 wt % of grape seed-derived anti-aging ingredients of the present invention. Example 2: a basal medium comprising 0.01 wt % of grape seed-derived anti-aging ingredients of the present invention. Example 3: a basal medium comprising 0.05 wt % of grape seed-derived anti-aging ingredients of the present invention. Comparative Example 1: a basal medium containing 0.0023 wt % of resveratrol. Control: a basal medium (comprising no grape seed-derived anti-aging ingredients of the present invention nor resveratrol). […] The amount of the necrosis cells was measured using an ethidium homodimer III (EthD-III) which has been conventionally used as a necrosis marker. In more detail, EthD-III is a film-impermeable nucleic acid probe and the amount of the necrosis cells was measured by using its property that neither the viable cells nor the apoptosis cells are stained but the necrosis cells are stained in strong red with EthD-III. After removing the culture supernatant of a normal human fibroblast cultured in Example 2, the normal human fibroblast was washed twice with PBS (NISSUI PHARMACEUTICAL CO., LTD., product No.: 05913). To the washed normal human fibroblast were added a 1×Binding Buffer containing a 1000-fold diluted Hoechist 33342 solution (DOJINDO LABORATORIES, product No.: 346-079511), a 20-fold diluted FITC-Annexin V, and a 20-fold diluted EthD-III. Then, the normal human fibroblast was cultured at 37° C. for 30 minutes. Then, after removing culture supernatant, the normal human fibroblast was washed twice in the 1×Binding Buffer. New 1×Binding Buffer was added to the normal human fibroblast after the washing, and images of nuclear staining (viable cell), Annexin V staining (apoptosis), and an EthD-III staining (necrosis) were taken by a fluorescence microscope. The amount of apoptosis cells and the amount of necrosis cells were calculated from the fluorescent observation images. Furthermore, FITC-Annexin V, EthD-III and 1×Binding Buffer used in Examples were from Apoptotic/Necrotic/Healthy Cells Detection Kit (Takara Bio, Inc. product No.: D25517).

[4] = tested on: budding yeast (Saccharomyces cerevisiae); conditions: cited from earlier work
[5] = tested on: Normal human fibroblasts; experiment: Amount of apoptosis cells (FITC-Annexin V staining); assay type: cell-based; conditions: for amount of the apoptosis cells compared to the Control: Control = 100%, Example 1/2/3 = 0.002/0.01/0.05 wt % ingredient, Comparative Example 1 = 0.0023 wt % resveratrol
Excerpt: Example 1: a basal medium comprising 0.002 wt % of grape seed-derived anti-aging ingredients of the present invention. Example 2: a basal medium comprising 0.01 wt % of grape seed-derived anti-aging ingredients of the present invention. Example 3: a basal medium comprising 0.05 wt % of grape seed-derived anti-aging ingredients of the present invention. Comparative Example 1: a basal medium containing 0.0023 wt % of resveratrol. Control: a basal medium (comprising no grape seed-derived anti-aging ingredients of the present invention nor resveratrol). The amount of the apoptosis cells was measured using Annexin V which has been conventionally used as an apoptosis marker. In more detail, the amount of the apoptosis cells was measured by selectively fluorescently-staining the apoptosis cells by fluorescently labeled Annexin V, using its property that Annexin V binds to phosphatidylserine often appearing on a surface of the apoptosis cells. After removing the culture supernatant of a normal human fibroblast cultured in Example 2, the normal human fibroblast was washed twice with PBS (NISSUI PHARMACEUTICAL CO., LTD., product No.: 05913). To the washed normal human fibroblast were added a 1×Binding Buffer containing a 1000-fold diluted Hoechist 33342 solution (DOJINDO LABORATORIES, product No.: 346-079511), a 20-fold diluted FITC-Annexin V, and a 20-fold diluted EthD-III. Then, the normal human fibroblast was cultured at 37° C. for 30 minutes. Then, after removing culture supernatant, the normal human fibroblast was washed twice in the 1×Binding Buffer. New 1×Binding Buffer was added to the normal human fibroblast after the washing, and images of nuclear staining (viable cell), Annexin V staining (apoptosis), and an EthD-III staining (necrosis) were taken by a fluorescence microscope. The amount of apoptosis cells and the amount of necrosis cells were calculated from the fluorescent observation images. Furthermore, FITC-Annexin V, EthD-III and 1×Binding Buffer used in Examples were from Apoptotic/Necrotic/Healthy Cells Detection Kit (Takara Bio, Inc. product No.: D25517).

[6] = tested on: Normal human fibroblasts; experiment: Workload of a certain amount of mitochondria (MTT assay); assay type: cell-based; conditions: for workload of a certain amount of mitochondria relative to Control: Control = 100%, Example 1/2/3 = 0.002/0.01/0.05 wt % ingredient, Comparative Example 1 = 0.0023 wt % resveratrol
Excerpt: Example 1: a basal medium comprising 0.002 wt % of grape seed-derived anti-aging ingredients of the present invention. Example 2: a basal medium comprising 0.01 wt % of grape seed-derived anti-aging ingredients of the present invention. Example 3: a basal medium comprising 0.05 wt % of grape seed-derived anti-aging ingredients of the present invention. Comparative Example 1: a basal medium containing 0.0023 wt % of resveratrol. Control: a basal medium (comprising no grape seed-derived anti-aging ingredients of the present invention nor resveratrol). The workload of a certain amount of mitochondria was measured by MTT assay. Since the only target of MTT assay is dehydrogenase activity of mitochondria, the result of MTT assay reflects the workload of a certain amount of mitochondria. After measuring the fluorescence intensity, supernatants were removed, and normal human fibroblasts were washed once with PBS (Nissui Pharmaceutical Co., Ltd., product No.: 05913). After the normal human fibroblasts were washed, they were replaced with PBS (100 μl/well) comprising 0.5 mg/ml of MTT (Thiazolyl Blue Tetrazolium Bromide (SIGMA, product No.: […] Subsequently, 100 μl of 0.01M HCl (SIGMA, product No.: 13-1690) and 10% SDS (Wako Pure Chemical Corporation, product No.: 191-07145) were added to each well and reacted at room temperature for 24 hours. After the reaction, formazan of MTT was resolved. After resolving formazan, absorbance was measured using a plate reader (Thermo Fisher Scientific, product No.: VARIOSKAN FLASH) (measurement wavelength 550 nm, reference wavelength 660 nm).

[7] = tested on: Normal human fibroblasts; experiment: Amount of mitochondria (Mito Tracker Mitochondrion-Selective Probes); assay type: cell-based; conditions: for amount of mitochondria relative to Control: Control = 100%, Example 1/2/3 = 0.002/0.01/0.05 wt % ingredient, Comparative Example 1 = 0.0023 wt % resveratrol
Excerpt: Example 1: a basal medium comprising 0.002 wt % of grape seed-derived anti-aging ingredients of the present invention. Example 2: a basal medium comprising 0.01 wt % of grape seed-derived anti-aging ingredients of the present invention. Example 3: a basal medium comprising 0.05 wt % of grape seed-derived anti-aging ingredients of the present invention. Comparative Example 1: a basal medium containing 0.0023 wt % of resveratrol. Control: a basal medium (comprising no grape seed-derived anti-aging ingredients of the present invention nor resveratrol). The amount of mitochondria was measured using Mito Tracker Mitochondrion-Selective Probes (Invitrogen, product No.: M7512) which can selectively label mitochondria in a cell. After removing culture supernatants of normal human fibroblasts cultured in Example 2, normal human fibroblasts were washed twice with PBS (Nissui Pharmaceutical Co., Ltd., product No.: 05913). To the washed cells were added a basal medium comprising a 1000-fold diluted Hoechist 33342 solution (DOJINDO LABORATORIES, product No.: 346-07951) and a 2000-fold diluted Mito Tracker Mitochondrion-Selective Probes (Invitrogen, product No.: M7512), and normal human fibroblasts were cultured at 37° C. for 30 minutes. After the culture, culture supernatants were removed and normal human fibroblasts were washed twice with PBS (Nissui Pharmaceutical Co., Ltd., product No.: 05913). After wash, PBS (Nissui Pharmaceutical Co., Ltd., product No.: 05913) was newly added to the normal human fibroblasts, and nuclei staining (living cells) and stained images of mitochondria were taken by a fluorescence microscope (Keyence Corporation, product No.: BZ-[…]). Subsequently, each fluorescence intensity was measured using a fluorescent plate reader (Thermo Fisher Scientific, product No.: VARIOSKAN FLASH) (Hoechis: excitation wavelength 356 nm, fluorescence wavelength 465 nm, Mito Tracker: excitation wavelength 579 nm, fluorescence wavelength 599 nm).

## Oc1ccc(/C=C/c2cc(O)cc(O)c2)cc1 [Comparative Example 1, trans-3,4′,5-trihydroxy-stillbene]
[1]
  effect on life span of mice, in words: does not extend the life span
[2]; cells cultured for 7 days
  amount of senescent cells versus Control, in words: more senescent cells among cells cultured for 7 days than Control
[2]; cultured for 7 days
  amount of the senescent cells relative to Control: 519%
[2]; cultured for 14 days
  amount of the senescent cells relative to Control: 102%
[2]; cultured for 21 days
  amount of the senescent cells relative to Control: 64%
[3]; 7 to 21 days of culture
  effect on the amount of the necrosis cells, in words: increasing the amount of the necrosis cells in all the periods
[3]; concentration of resveratrol more than 0.0023 wt %
  necrosis cells at higher concentration, in words: necrosis cells increase too much
[3]; cultured for 7 days
  amount of the necrosis cells compared to the Control: 125%
[3]; cultured for 14 days (FIG. 5B), Example 1/2/3 = 0.002/0.01/0.05 wt % ingredient
  amount of the necrosis cells compared to the Control: 801%
[3]; cultured for 21 days, Example 1/2/3 = 0.002/0.01/0.05 wt % ingredient
  amount of the necrosis cells compared to the Control: 608%
[4]
  extension of the life span of the budding yeast: 70%
[5]; 7 to 21 days of culture
  effect on the amount of the apoptosis cells, in words: increasing the amount of the apoptosis cells
[5]; cultured for 7 days
  amount of the apoptosis cells compared to the Control: 2184%
[5]; cultured for 14 days
  amount of the apoptosis cells compared to the Control: 1400%
[5]; cultured for 21 days
  amount of the apoptosis cells compared to the Control: 4525%
[6]; 7 to 21 days of culture
  effect on the workload of a certain amount of mitochondria, in words: decreasing the workload of a certain amount of mitochondria
[6]; cultured for 7 days
  workload of a certain amount of mitochondria relative to Control: 22%
[6]; cultured for 14 days
  workload of a certain amount of mitochondria relative to Control: 20%
[6]; cultured for 21 days
  workload of a certain amount of mitochondria relative to Control: 49%
[7]; 7 to 21 days of culture
  effect on the amount of mitochondria, in words: increasing an amount of mitochondria
[7]; cultured for 7 days
  amount of mitochondria relative to Control: 191%
[7]; cultured for 14 days
  amount of mitochondria relative to Control: 228%
